Reference: patent publication US11859209B2, “Method for inducing osteogenic differentiation” (KYOTO UNIVERSITY, priority 2017, dated 2024)

Tests used:
iPS cells = assay: Amount of calcium salt deposition (OCPC), one-procedure osteogenic differentiation method; format: cell-based, human
Experimental: On-feeder iPS cells were cultured under feeder-free conditions on Matrigel coating in mTeSR (product name, Stemcell Technologies) for three days (D-3 to D0). The cells were seeded on gelatin coating and cultured in a mixed culture medium of osteogenic induction medium (OI medium) and mTeSR (mixing ratio=4:1) supplemented with a ROCK inhibitor (ROCKi) and retinoic acid (RA) for the first two days (D0 to D2). The cells were then cultured in osteogenic induction medium supplemented with retinoic acid (RA) until D10. As a control, cells were cultured in the same culture medium without retinoic acid.
iPS cells were cultured under feeder-free conditions on laminin coating in StemFit AK03N (product name, Ajinomoto Healthy Supply), and then cultured in a mixed culture medium of osteogenic induction medium (OI medium) and mTeSR (mixing ratio=4:1) supplemented with a ROCK inhibitor (ROCKi) and retinoic acid (RA) for the first two days (D0 to D2). The cells were then cultured in osteogenic induction medium supplemented with retinoic acid (RA) until D10. As a control, cells were cultured in the same culture medium without retinoic acid.
(§1) For the evaluation of calcified nodule-forming capacity, the cultured cells were fixed in ethyl alcohol, reacted with alizarin red staining solution for 10 minutes and washed. The positive nodules were evaluated qualitatively. Calcium salt deposition was determined quantitatively by measuring the intensity of color produced by o-cresolphthalein complexon (OCPC) solution.
Next, induction of osteogenic differentiation via BMP and WNT was investigated using inhibitors against them. Cells were cultured in culture medium supplemented with a BMP inhibitor (LDN) or a WNT inhibitor (IWR1) for 10 days, and the amount of calcium salt deposition was determined. […] The results confirmed that both of BMP and WNT signals are implicated in the induction of osteogenic differentiation by retinoic acid.
Cells were cultured in culture medium supplemented with BMS 493, which is an antagonist against all the retinoic acid receptors (pan-RAR antagonist) for 10 days, and the amount of calcium salt deposition was determined.
Next, the effects of siRNAs on each RAR were analyzed. […] However, addition of siRNAs against RARα (α#1 and α#2) and siRNAs against RARβ (β#1 and β#2) reduced the bone-forming capacity. […] In the figure, CTL indicates cell culture supplemented with a control siRNA, and (−) indicates cell culture with no siRNA.
Cells were subjected to the one-procedure osteogenic differentiation method in osteogenic induction medium supplemented with a retinoic acid receptor (RAR) agonist instead of retinoic acid (RA). The amount of calcium salt deposition was determined on day 10. As with addition of retinoic acid, the amount of calcium salt deposition was increased by the addition of the RARα agonists Am 580 (200 nM) and Am 80 (1 μM), or the RARβ agonists CD2314 (3 μM) and AC 55649 (3 μM).

[1] = test system: iPS cells derived from osteogenesis imperfecta patients having abnormalities of the COL1A1 gene; assay: Alizarin red staining of cells induced from OI patient-derived iPS cells; format: cell-based, human; conditions: 100 nM added from day 2, assessed on day 10; FIG. 19
Experimental: as §1
(§2) iPS cells (OI#1-1 and OI#2-1) were established from two OI patients (OI#1 and OI#2) having an abnormal COL1A1 gene. The respective mutations in the COL1A1 gene in the iPS cells were restored by genome editing technology to generate rescued iPS cells (resOI#1-1 and resOI#2-1). These iPS cells and standard iPS cells (WT1, 414C2; WT2, 409B2) were subjected to induction of osteogenic differentiation by the one-procedure osteogenic differentiation method. On day 10 of induction, the cells were compared in terms of the capacity of calcified nodule formation, the amount of calcium salt deposition, the expression of an ER stress-related gene, and the capacity of type I collagen secretion.
(§3) Accordingly, the inventors investigated whether the one-procedure osteogenic differentiation method can recapitulate the effects of an mTOR inhibitor. Rapamycin (10 nM) or everolimus (100 nM) was added to the culture medium from day 2 of the induction, and differentiation capacity was assessed on day 10.

[2] = test system: iPS cells derived from osteogenesis imperfecta patients having abnormalities of the COL1A1 gene; assay: Calcium salt deposition of cells induced from OI patient-derived iPS cells; format: cell-based, human; conditions: 100 nM added from day 2, assessed on day 10; FIG. 20
Experimental: as §1, §2, §3

[3] = test system: iPS cells derived from osteogenesis imperfecta patients having abnormalities of the COL1A1 gene; assay: Expression of ER stress-related gene BiP in cells induced from OI patient-derived iPS cells; format: cell-based, human; conditions: 100 nM added from day 2, assessed on day 10; FIG. 21
Excerpt: as §2, §3

[4] = test system: iPS cells derived from osteogenesis imperfecta patients having abnormalities of the COL1A1 gene; assay: Type I collagen secretion by immunostaining with anti-type I collagen antibody, OI patient-derived iPS cells; format: cell-based, human; conditions: 100 nM added from day 2, assessed on day 10; FIG. 22
Excerpt: as §2, §3

[5] = test system: bone defects of 4 mm in diameter created in the cranium of NOD-SCID mice; assay: Transplantation of day 7 induced cells into cranial bone defects, micro-CT and histology after six weeks; conditions: transplanted cells cultured in osteogenic induction medium supplemented with retinoic acid, FIG. 8B
[6] = day 10, agonist instead of retinoic acid, 3 μM, FIG. 14
[7] = day 10, agonist instead of retinoic acid, 1 μM, FIG. 14

SMILES: CCCCCCCCc1ccc(-c2ccc(C(=O)O)cc2)cc1 [AC 55649]
- amount of calcium salt deposition (iPS cells; [6]): increased

SMILES: CC1(C)CCC(C)(C)c2cc(NC(=O)c3ccc(C(=O)O)cc3)ccc21 [Am 80]
- amount of calcium salt deposition (iPS cells; [7]): increased

SMILES: CC1(C)CCC(C)(C)c2cc(C(=O)Nc3ccc(C(=O)O)cc3)ccc21 [Am 580]
- amount of calcium salt deposition (iPS cells; day 10, agonist instead of retinoic acid, 200 nM, FIG. 14): increased

SMILES: CC1(C)CC=C(C#Cc2ccccc2)c2cc(/C=C/c3ccc(C(=O)O)cc3)ccc21 [BMS 493]
- amount of calcium salt deposition (iPS cells; culture medium supplemented with pan-RAR antagonist for 10 days, induction by RA, FIG. 12): The effects of RA were completely eliminated

SMILES: O=C(O)c1ccc2cc(-c3ccc(O)c(C45CC6CC(CC(C6)C4)C5)c3)ccc2c1 [CD437]
- amount of calcium salt deposition (iPS cells; [7]): such effects were not observed

SMILES: CC1(C)CCC(C)(C)c2cc3cc(-c4cc(C(=O)O)cs4)ccc3cc21 [CD2314]
- amount of calcium salt deposition (iPS cells; [6]): increased

SMILES: O=C(Nc1cccc2cccnc12)c1ccc(N2C(=O)[C@@H]3[C@H](C2=O)[C@@H]2C=C[C@H]3C2)cc1 [IWR1]
- amount of calcium salt deposition (iPS cells; culture medium supplemented with BMP or WNT inhibitor for 10 days, induction by retinoic acid, FIG. 11): increase in calcium salt deposition by retinoic acid was inhibited

SMILES: CC1(C)CCC(C)(C)c2cc(Cn3cccn3)c(/C=C/c3ccc(C(=O)O)cc3)cc21 [R667]
- amount of calcium salt deposition (iPS cells; day 10, agonist instead of retinoic acid, 100 nM, FIG. 14): such effects were not observed

SMILES: CO[C@H]1C[C@@H]2CC[C@@H](C)[C@@](O)(O2)C(=O)C(=O)N2CCCC[C@H]2C(=O)O[C@H]([C@H](C)C[C@@H]2CC[C@@H](OCCO)[C@H](OC)C2)CC(=O)[C@H](C)/C=C(\C)[C@@H](O)[C@@H](OC)C(=O)[C@H](C)C[C@H](C)/C=C/C=C/C=C/1C [everolimus]
- capacity of forming alizarin red-positive calcified nodules [1]: improves
- amount of calcium salt deposition [2]: improves
- ER stress (expression of the ER stress-related gene BiP) [3]: suggested reduction of ER stress
- Type I collagen secretion and distribution [4]: remarkably improved

SMILES: CC1=C(/C=C/C(C)=C/C=C/C(C)=C/C(=O)O)C(C)(C)CCC1 [retinoic acid]
- tumor formation [5]: no tumor formation was observed
